Here are results for two compounds from patent publication US20250332154A1, “USE OF NAPHTHOQUINE PHOSPHATE IN PREPARATION OF A MEDICAMENT FOR TREATING AUTOIMMUNE DISEASES” (SHANGHAI PHARMACEUTICALS INDUSTRY CO., LTD, priority 2022, published 2025).

Counter-ions that a name gives are not always drawn. Like-named read-outs stand apart in the source and are kept apart here.

A word on the IC50: it is the concentration that gives 50% inhibition. By CC50 is commonly meant the concentration that lowers cell viability or growth by half. A higher CC50 goes with better tolerance by the cells.

For series [1], the system named is IgM. Briefly: IgM secretion by TLRs-L-stimulated mouse whole spleen lymphocytes (ELISA). It is filed as cell-based. Particulars: Lymphocyte, 120 h. How it is done:
(§1) BALB/c mice were sacrificed by cervical dislocation, and spleens were aseptically excised to prepare whole spleen lymphocytes. The cells were adjusted to 5×10^6 cells/ml. Hydroxychloroquine sulfate was diluted with a 3-fold gradient into 3 concentrations starting from 30 μM: 30, 10 and 3 μM; naphthoquine phosphate was diluted with a 3-fold gradient into 3 concentrations starting from 10 μM: 10, 3 and 1 μM.
(§2) Mouse spleen lymphocytes were inoculated into a 96-well plate at 100 μl/well, and the stimulant TLR4-L (final concentration: 10 μg/ml), TLR7-L (final concentration: 5 μg/ml) or TLR9-L (final concentration: 1 μM) and the compounds diluted with the above concentration gradients were added. A corresponding stimulation control and a cell control (without stimulation) were set up. The cells were cultured in a 37° C., 5% CO2 incubator for 120 hours. After the end of the culture, the cell culture supernatants were collected, and the levels of IgG and IgM were measured by ELISA.
Background: ELISA stands for enzyme-linked immunosorbent assay.

In series [2] the test system is IL-6. In words: IL-6 secretion by TLRs-L-stimulated mouse whole spleen lymphocytes (ELISA). The conditions noted are these: Lymphocyte, 48 h. It is filed as cell-based. Here is the method:
as §1
(§3) Mouse spleen lymphocytes were inoculated into a 96-well plate at 100 μl/well, and the stimulant TLR4-L (final concentration: 10 μg/ml), TLR7-L (final concentration: 5 μg/ml) or TLR9-L (final concentration: 1 μM) and the compounds diluted with the above concentration gradients were added. A corresponding stimulation control and a cell control (without stimulation) were set up. The cells were cultured in a 37° C., 5% CO2 incubator for 48 hours. After the end of the culture, the cell culture supernatants were collected, and the levels of IL-1β, IL-6, and IL-10 were measured by ELISA.

Series [3] concerns TNF-α. Briefly: TNF-α production by LPS-induced RAW264.7 cells (ELISA). The conditions noted are these: for production of TNF-α: LPS-induced RAW264.7, in words; for IC50: Mus musculus, LPS 10 μg/ml, RAW264.7. It is filed as cell-based, mouse. How it is done:
RAW264.7 cells were inoculated into a 96-well plate at 1×10^5/well and allowed to adhere to the wall for 6 hours in a 37° C., 5% CO2 incubator. […] After the cells adhered to the wall, the stimulant LPS (final concentration: 10 μg/ml) and the gradient-diluted compounds were added. A corresponding stimulation control and a cell control (without stimulation) were set up. After the end of the culture, the cell culture supernatants were collected, and the levels of TNF-α, IL-1β and IL-6 were measured by ELISA.

In series [4] the test system is IgG. In words: IgG secretion by TLRs-L-stimulated mouse whole spleen lymphocytes (ELISA). It counts as cell-based. The conditions noted are these: Lymphocyte, 120 h. How it is done:
as §1, §2

Series [5] has as its system IL-10. In words: IL-10 secretion by TLRs-L-stimulated mouse whole spleen lymphocytes (ELISA). It counts as cell-based. The conditions noted are these: Lymphocyte, 48 h. How it is done: as §1, §3
The subject of series [6] is IL-1β. In words: IL-1β secretion by TLRs-L-stimulated mouse whole spleen lymphocytes (ELISA). Particulars: Lymphocyte, 48 h, read-out: IB-1β IC50. It counts as cell-based. Here is the method: as §1, §3
The nature of series [7]: Non-specific cytotoxicity assay (MTT), mouse spleen lymphocytes. The conditions noted are these: BALB/c, mouse, mouse whole spleen lymphocytes. It counts as cell-based. Here is the method:
BALB/c mice were sacrificed by cervical dislocation, and spleens were aseptically excised to prepare whole spleen lymphocytes. The cells were adjusted to the required concentration. The compound concentrations started at 250 μM and was diluted with a 4-fold gradient to obtain 10 concentrations: 250, 62.5, 15.625, 3.906, 0.977, 0.244, 0.061, 0.015, 0.004 and 0.001 μM.
A suspension of mouse spleen lymphocytes was inoculated into a 96-well plate at 8×10^5/well, and the above 10 concentration gradients of the compound were added. A corresponding cell control (i.e. spleen lymphocyte culture system without compound) and a RPMI 1640 culture medium background control (blank culture medium control) were set up. The cells were cultured in a 37° C., 5% CO2 incubator for 48 hours. Four hours before the end of the culture, 20 μl of 5 mg/ml MTT solution was added, and the reaction continued until the end of the culture (i.e. the aforementioned 48 hours). The supernatant was aspirated and discarded, 200 μl DMSO was added to each well to dissolve the crystals. […]. The absorbance value was measured at […] with a microplate reader (Spectra Max 190, Molecular Devices).

Series [8] has as its system mouse whole spleen lymphocytes (ConA-induced T cell activation and proliferation). Briefly: ConA-induced lymphocyte proliferation assay (3H-thymidine). It is filed as cell-based. Particulars: for IC50: ConA 1 μg/ml, 48 hours, 3H-thymidine, read-out: ConA IC50. How it is done: (§4) BALB/c mice were sacrificed by cervical dislocation, and spleens were aseptically excised to prepare whole spleen lymphocytes. The cells were adjusted to the required concentration.
(§5) A suspension of mouse spleen lymphocytes was inoculated into a 96-well plate at 5×10^5/well, and ConA (final concentration: 1 μg/ml) or LPS (final concentration: 10 μg/ml) and the above 10 concentration gradients of the compound were added. Corresponding cell control wells without ConA and LPS, as well as medicament-free stimulated control wells, were set up. The cells were cultured in a 37° C., 5% CO2 incubator for 48 hours. Eight hours before the end of the culture, ^3H-thymidine was added, and the culture continued until the end of the experiment (i.e., the aforementioned 48 hours). The cells were collected onto glass fiber membranes using a cell collector.
(§6) ConA and LPS, as mitogens, stimulated proliferation and differentiation of T and B lymphocytes, respectively. This process is similar to the activation process of lymphocytes in vivo. Therefore, mitogen-induced lymphocyte proliferation is commonly used as an indicator to evaluate functionality of lymphocytes.

In series [9] the test system is mouse whole spleen lymphocytes (LPS-induced B cell activation and proliferation). Briefly: LPS-induced lymphocyte proliferation assay (3H-thymidine). It counts as cell-based. The conditions noted are these: for IC50: LPS 10 μg/ml, 48 hours, 3H-thymidine, read-out: LPS IC50. Here is the method: as §4, §5, §6
Series [10] is described as follows: Non-specific cytotoxicity assay (MTT), RAW264.7. It is filed as cell-based, mouse. The conditions noted are these: mouse, RAW264.7 cells. How it is done:
RAW264.7 cells were inoculated into a 96-well plate at 1×10^5/well and allowed to adhere to the wall for 6 hours in a 37° C., 5% CO2 incubator. […] A corresponding solvent control (cell control) and a culture medium background control (blank control) were set up. The cells were cultured in a 37° C., 5% CO2 incubator for 48 hours. Fifteen minutes before the end of the culture, 20 μl of 5 mg/ml MTT was added. At the end of the culture, the supernatant was aspirated and discarded, 200 μl DMSO was added to dissolve the crystals.

Series [11] can be described thus: Cytotoxicity (CC50) on mouse whole spleen lymphocytes, Example 3. It counts as cell-based. Particulars: BALB/c; mouse whole spleen lymphocytes (Tables 3 and 4). How it is done: as §1
Where [12] appears, read: listed as Hydroxychloroquine Sulfate (Zhongxi Sunve).

For the compound `CCN(CCO)CCCC(C)Nc1ccnc2cc(Cl)ccc12` (stereo not drawn) [Hydroxychloroquine Sulfate, hydroxychloroquine sulfate], the IC50 in [1] (stimulant TLR4-L 10 μg/ml) was 25.3 µM; in [1] (stimulant TLR7-L 5 μg/ml), 19.2 µM; in series [1] (stimulant TLR9-L 1 μM) it was 2.51 µM; in series [2] (stimulant TLR4-L 10 μg/ml), 15.3 µM; in series [2] (stimulant TLR7-L 5 μg/ml), 1.91 µM; in series [2] (stimulant TLR9-L 1 μM) it was 3.92 µM. Further, the IC50 in series [3] was found to be 46.3 µM; in [4] (stimulant TLR4-L 10 μg/ml), 18.2 µM; in series [4] (stimulant TLR7-L 5 μg/ml) it was 26.9 µM; in [4] (stimulant TLR9-L 1 μM) it was 5.63 µM; in [5] (stimulant TLR4-L 10 μg/ml), 3.19 µM; in series [5] (stimulant TLR7-L 5 μg/ml), 1.11 µM. Besides, the IC50 stood at 3.3 µM in series [5] (stimulant TLR9-L 1 μM); 32 µM in series [6] (stimulant TLR4-L 10 μg/ml); 41.6 µM in series [6] (stimulant TLR9-L 1 μM); 17 µM in series [8] (setting [12]); 17.1 µM in series [8] (Mus musculus, Lymphocyte); 14.9 µM in [9] (setting [12]). For the same compound, the IC50 in [9] (Mus musculus, Lymphocyte) was determined as 14.9 µM. Besides, the “production of TNF-α” value in series [3] was “no significant effect”. The results for the 50% cytotoxic concentration (CC50) at 48 h in series [7] and in series [10] were 25.2 µM and 24.4 µM, respectively. This compound also gave a 50% cytotoxic concentration (CC50) in series [11] of 26.9 µM.
As to `CC(C)(C)NCc1cc(Nc2ccnc3cc(Cl)ccc23)c2c(c1O)CCCC2.O=P(O)(O)O.O=P(O)(O)O` [Naphthoquine Phosphate, Naphthoquine phosphate], the IC50 was 0.845 µM in series [1] (stimulant TLR4-L 10 μg/ml); 2.03 µM in [1] (stimulant TLR9-L 1 μM); 0.63 µM in [2] (stimulant TLR4-L 10 μg/ml); 0.007 µM in series [2] (stimulant TLR7-L 5 μg/ml); 0.29 µM in series [2] (stimulant TLR9-L 1 μM); greater than 10 µM in series [3]. Also, the IC50 in series [4] (stimulant TLR9-L 1 μM) was determined as 0.325 µM; in [5] (stimulant TLR4-L 10 μg/ml) it was 0.106 µM; in [5] (stimulant TLR7-L 5 μg/ml), 0.039 µM; in series [5] (stimulant TLR9-L 1 μM), 0.19 µM; in series [6] (stimulant TLR4-L 10 μg/ml) it was 3.35 µM; in series [8] (Mus musculus, Lymphocyte) it was 0.41 µM. Besides, the half-inhibitory concentration (IC50) in series [9] (Mus musculus, Lymphocyte) stood at 0.08 µM. Further, the “production of TNF-α” value in series [3] is on record as “no significant effect”. The CC50 at 48 h in series [7] turned out to be 1.45 µM; in series [10] it was 8.73 µM. For the same compound, the “effect on ConA-induced T cell activation and proliferation” value in [8] (in words) is listed as “significant inhibitory activity”. The “effect on LPS-induced B cell activation and proliferation” value in series [9] (in words) is given as “significant inhibitory activity”. In series [11], this compound returned a CC50 of 1.59 µM.
